Values joined by “and” are separate entries in the source; they are usually repeats but may differ in a detail not shown here. Equal entries are not always repeated. Where two headings read alike, the source gives them in different places. Values belong to the compound of their own block, whether it stands above or below them.
Key:
[1] = stability in 0.1M phosphate buffer via HPLC; assay type: physicochemical
Experimental: In addition, the stability of representative compounds was tested, via HPLC, in 0.1M phosphate buffer (pH 7.4, 37° C.).

[2] = test system: lymphocyte proliferation (LAF); cells from the thymus of normal BALB/c mice; test: comitogen-induced thymocyte proliferation procedure (LAF); assay type: cell-based; details: read-out: LAF IC50
Experimental: The immunosuppressive activities for representative compounds of this invention were evaluated in an in vitro standard pharmacological test procedure to measure lymphocyte proliferation (LAF) and in an in vivo standard pharmacological test procedure which evaluated the survival time of pinch skin grafts. […] Cells are harvested and incorporated radioactivity is determined. Inhibition of lymphoproliferation is assessed as percent change in counts per minute from non-drug treated controls. The results are expressed as an IC50.

[3] = test system: insulin dependent diabetes mellitus; details: cited from earlier work
[4] = test system: Candida albicans; details: particularly against Candida albicans, both in vitro and in vivo; cited from earlier work
[5] = test system: systemic lupus erythematosus; details: cited from earlier work
[6] = test system: formation of IgE-like antibodies; details: cited from earlier work
[7] = test system: experimental allergic encephalomyelitis model, a model for multiple sclerosis; details: cited from earlier work
[8] = test system: smooth muscle cell proliferation and intimal thickening following vascular injury; details: cited from earlier work
[9] = alone or in combination with picibanil; cited from earlier work
[10] = test system: adjuvant arthritis model, a model for rheumatoid arthritis; details: cited from earlier work
[11] = test system: pinch skin graft from male DBA/2 donors transplanted to male BALB/c recipients; test: survival time of pinch skin graft; assay type: in vivo, mice; details: for Skin Graft (days), mean graft survival time: intraperitoneally, ± S.D.
Experimental: Representative compounds of this invention were also evaluated in an in vivo test procedure designed to determine the survival time of pinch skin graft from male DBA/2 donors transplanted to male BALB/c recipients. The method is adapted from Billingham R. E. and Medawar P. B., J. Exp. Biol. 28:385-402, (1951). Briefly, a pinch skin graft from the donor is grafted on the dorsum of the recipient as a homograft, and an autograft is used as control in the same region. The recipients are treated with either varying concentrations of cyclosporin A as test control or the test compounds, intraperitoneally. Untreated recipients serve as rejection control. The graft is monitored daily and observations are recorded until the graft becomes dry and forms a blackened scab. This is considered as the rejection day. The mean graft survival time (number of days±S.D.) of the drug treatment group is compared with the control group.

[12] = 0.1m phosphate buffer, pH 7.4 buffer, 0.1M phosphate, 37° C., read-out: Stability (converted)
[13] = BALB/c mouse thymocytes, PHA and IL-1, 72 hours

- half-life [1, 12]: 13.5 h
SMILES: COC1CC2CCC(C)C(O)(O2)C(=O)C(=O)N2CCCCC2(C)C(=O)OC(C(C)CC2CCC(OC(=O)CN(C)C)C(OC)C2)CC(=O)C(C)C=C(C)C(O)C(OC)C(=O)C(C)CC(C)C=CC=CC=C1C (stereo not shown) [C-22-methyl-42-dimethylglycine-rapamycin, C-22-methyl-42-dimethylglycine rapamycin]
- IC50 [2, 13]: 0.0199 µM

- half-life ([1]; 0.1m phosphate buffer, pH 7.4): 21.8 h
SMILES: CO[C@H]1C[C@@H]2CC[C@@H](C)[C@@](O)(O2)C(=O)C(=O)N2CCCCC2(C)C(=O)O[C@H]([C@H](C)C[C@@H]2CC[C@@H](O)[C@H](OC)C2)CC(O)[C@H](C)/C=C(\C)[C@@H](O)[C@@H](OC)C(=O)[C@H](C)C[C@H](C)/C=C/C=C/C=C/1C (stereo partly shown) [22-methyl-27-hydroxyrapamycin, C-22-methyl-C-27-hydroxy-rapamycin]
- IC50 [2, 13]: 0.0099 µM

SMILES: CO[C@H]1C[C@@H]2CC[C@@H](C)[C@@](O)(O2)C(=O)C(=O)N2CCCC[C@H]2C(=O)O[C@H]([C@H](C)C[C@@H]2CC[C@@H](O)[C@H](OC)C2)CC(=O)[C@H](C)/C=C(\C)[C@@H](O)[C@@H](OC)C(=O)[C@H](C)C[C@H](C)/C=C/C=C/C=C/1C [rapamycin]
- effect in insulin dependent diabetes mellitus [3]: useful in preventing or treating
- antifungal activity [4]: antifungal activity, particularly against Candida albicans, both in vitro and in vivo
- effect in systemic lupus erythematosus [5]: useful in preventing or treating
- inhibition of formation of IgE-like antibodies [6]: effectively inhibited
- effect in experimental allergic encephalomyelitis model [7]: effective
- effect on smooth muscle cell proliferation and intimal thickening [8]: useful in preventing or treating
- antitumor activity [9]: antitumor activity
- half life in stability test ([1]; 0.1M phosphate buffer, pH 7.4, 37° C.): 12 to 13 h
- half-life [1, 12]: 12 to 13 h
- effect in adjuvant arthritis model [10]: effective
- Skin Graft (days), mean graft survival time ([11]; 4 mg/kg): 12.01 ± 0.26 days
- IC50 ([2]; Mus musculus, 72 h): 0.0004 to 0.0094 µM

SMILES: CO[C@H]1C[C@@H]2CC[C@@H](C)[C@@](O)(O2)C(=O)C(=O)N2CCCCC2(C)C(=O)O[C@H]([C@H](C)C[C@@H]2CC[C@@H](O)[C@H](OC)C2)CC(=O)[C@H](C)/C=C(\C)[C@@H](O)[C@@H](OC)C(=O)[C@H](C)C[C@H](C)/C=C/C=C/C=C/1C (stereo partly shown) [22-methyl-rapamycin, C-22-methyl-rapamycin]
- half-life ([1]; 0.1M phosphate buffer, pH 7.4, 37° C., read-out: half life in stability test (converted)): 38 h
- Skin Graft (days), mean graft survival time ([11]; 4 mg/kg): 9.33 ± 0.52 days and 9.00 ± 0.63 days
- Skin Graft (days), mean graft survival time ([11]; *tested at 16 mg/kg): 10.17 ± 0.55 days
- graft survival time (in words) ([11]; relative to grafts without immunosuppressive agent (rejected within 6-7 days)): increased survival time
- IC50 [2, 13]: 0.0235 µM

SMILES: CCC12CCCCN1C(=O)C(=O)[C@]1(O)O[C@@H](CC[C@H]1C)C[C@H](OC)/C(C)=C/C=C/C=C/[C@@H](C)C[C@@H](C)C(=O)[C@H](OC)[C@H](O)/C(C)=C/[C@@H](C)C(=O)C[C@@H]([C@H](C)C[C@@H]1CC[C@@H](O)[C@H](OC)C1)OC2=O (stereo partly shown) [22-ethyl-rapamycin, C-22-ethyl-rapamycin]
- IC50 [2, 13]: 0.14 µM
